From patent US20250295639A1, “METHODS FOR TREATING HEART DISEASES” (Cytokinetics, Incorporated, priority 2024, published 2025)

Tests used:
[1] = tested on: patients with symptomatic oHCM; assay: SEQUOIA-HCM cardiovascular magnetic resonance (CMR) substudy; assay type: in vivo, human
From the text: A further exploratory objective of this trial was to evaluate the effect of aficamten on left ventricular mass, function, and structure by cardiac magnetic resonance (CMR) imaging, as determined by changes from baseline to Week 24 in CMR measurements of left ventricular (LV) mass index, LVEF, septal and free wall thickness, left […] volume index, LVESV, and LVEDV. Cardiac Magnetic Resonance. A CMR imaging sub-study assessed the effects of administration of aficamten dosing on cardiac morphology, function, and fibrosis in approximately 40 oHCM patients who were eligible and consented to participate. CMR was performed during screening period and Week 24. […] Effect of Aficamten on Cardiac Structure and Function in Patients with Obstructive Hypertrophic Cardiomyopathy. For some patients with HCM, adverse remodeling of cardiac structure and function occur over time and are associated with increased risk of adverse events, including heart failure, sudden death and atrial fibrillation. Eligible participants enrolled in SEQUOIA-HCM (the study of Example 8), were offered enrolment in the cardiovascular magnetic resonance (CMR) substudy with CMR performed at baseline and at Week 24. Image analysis was performed in a blinded fashion by a core laboratory.

[2] = tested on: patients with symptomatic oHCM; assay: SEQUOIA-HCM substudy: post-exercise oxygen uptake recovery (VO2Rec); assay type: in vivo, human
Experimental: Patients were randomized 1:1 to aficamten or placebo for 24 weeks with a primary endpoint of pVO2. For this analysis, VO2Rec delay was measured as the time taken after exercise cessation for VO2 to decline by >0%, 12.5% (t12.5%), 25%, or 50% of pVO2. Change in t12.5% from baseline (BL) to week 24 (W24) was the primary endpoint. […]

[3] = CMR Cohort N = 57 (Aficamten N = 25), Baseline
[4] = CMR Cohort N = 57 (Aficamten N = 25), Week 24
[5] = CMR Measurements, CMR Cohort N = 57 (Aficamten N = 25), Baseline
[6] = CMR Measurements, CMR Cohort N = 57 (Aficamten N = 25), Week 24
[7] = CMR Measurements, CMR Cohort N = 57, vs placebo
[8] = Echo Measurements, CMR Cohort N = 57 (Aficamten N = 25), Baseline
[9] = Echo Measurements, CMR Cohort N = 57 (Aficamten N = 25), Week 24
[10] = Echo Measurements, CMR Cohort N = 57, vs placebo
[11] = baseline to week 24, vs placebo
[12] = LSM treatment difference vs placebo
[13] = change from baseline to week 24

## CCc1nc(-c2ccc3c(c2)CC[C@H]3NC(=O)c2cnn(C)c2)no1 [aficamten, (R)—N-(5-(5-ethyl-1,2,4-oxadiazol-3-yl)-2,3-dihydro-1H-inden-1-yl)-1-methyl-1H-pyrazole-4-carboxamide]
[1]; Baseline, N = 21
  LGE (% of LV mass) (CMR): 2.0 % of LV mass
  LGE Mass (CMR): 3.2 g
  Mitral Regurgitation Fraction (CMR): 24%
  Mitral Regurgitation Volume (CMR): 22 mL
  NT-proBNP, median: 708 pg/mL
  NYHA Class II, patients: 67%
  NYHA Class III, patients: 33%
[1]; Baseline, N = 21, mean ± SD
  Absolute myocyte mass index (CMR): 84 ± 25 g/m^2
  Echo LVOT Gradient at Rest: 55 ± 32 mm Hg
  Echo LVOT Gradient with Valsalva: 85 ± 45 mm Hg
  LA Volume Index (CMR): 68 ± 19 mL/m^2
  LV Ejection Fraction (CMR): 77.4 ± 5.6%
  LV End Diastolic Volume Index (CMR): 67 ± 15 mL/m^2
  LV End Systolic Volume Index (CMR): 15.3 ± 5.9 mL/m^2
  LV Extracellular Volume Fraction (CMR): 26.7 ± 2.7%
  LV Mass Index (CMR): 113 ± 33 g/m^2
  LV Maximal Wall Thickness (CMR): 19.3 ± 4.3 mm
  LV Native T1 (CMR): 1066 ± 121 ms
  LV extracellular volume mass index (CMR): 31 ± 10 %/g/m^2
  Peak oxygen consumption, pVO2: 20.1 ± 4.4 mL/kg/min
[1]; [3]
  NT-proBNP, median: 708 pg/mL
  Peak oxygen consumption, pVO2: 19.8 ± 4.7 mL/kg/min
[1]; [4]
  Improvement in NYHA by ≥1 FC, n (%): 15 (60.0) n (%)
  NT-proBNP, median: 81 pg/mL
  Peak oxygen consumption, pVO2: 21.0 ± 4.9 mL/kg/min
[1]; CMR Cohort N = 57, Week 24, vs placebo
  Improvement in NYHA by ≥1 FC, Treatment Effect, OR: OR 3.00
[1]; CMR Cohort N = 57, vs placebo
  NT-proBNP, Treatment Effect: -85 pg/mL
  Peak oxygen consumption, pVO2, Treatment Effect: 1.2 mL/kg/min
[1]; [5]
  LA Volume Index: 68 ± 19 mL/m^2
  LV Ejection Fraction: 77.4 ± 5.6%
  LV Mass Index: 113 ± 33 g/m^2
  LV Maximal Wall Thickness: 19.3 ± 4.3 mm
[1]; [6]
  LA Volume Index: 52 ± 14 mL/m^2
  LV Ejection Fraction: 73.8 ± 5.9%
  LV Mass Index: 103 ± 28 g/m^2
  LV Maximal Wall Thickness: 17.8 ± 4.5 mm
[1]; [7]
  LA Volume Index, Treatment Effect: −13 mL/m^2
  LV Ejection Fraction, Treatment Effect: −2.6%
  LV Mass Index, Treatment Effect: −15 g/m^2
  LV Maximal Wall Thickness, Treatment Effect: −2.1 mm
[1]; CMR substudy patients, Week 24
  NT-proBNP, change relative to placebo: −85%
  echocardiographic Valsalva LVOT-G, Δ least squares mean relative to placebo: −50 mm Hg
  echocardiographic resting LVOT-G, Δ least squares mean relative to placebo: −46 mm Hg
[1]; [8]
  LA Volume Index: 40 ± 11 mL/m^2
  LV Ejection Fraction: 74.3 ± 4.7%
  LV Mass Index: 126 ± 22 g/m2
  LV Maximal Wall Thickness: 20.6 ± 2.7 mm
  LVOT gradient at rest: 55 ± 30 mmHg
  LVOT gradient with Valsalva: 84 ± 42 mmHg
[1]; [9]
  LA Volume Index: 39 ± 10 mL/m^2
  LV Ejection Fraction: 68.2 ± 7.8%
  LV Maximal Wall Thickness: 18.7 ± 3.1 mm
  LVOT gradient at rest: 25 ± 25 mmHg
  LVOT gradient with Valsalva: 38 ± 30 mmHg
[1]; [10]
  LA Volume Index, Treatment Effect: −1 mL/m^2
  LV Ejection Fraction, Treatment Effect: −3.6%
  LV Mass Index, Treatment Effect: −10 g/m2
  LV Maximal Wall Thickness, Treatment Effect: −1.5 mm
  LVOT gradient at rest, Treatment Effect: −38 mmHg
  LVOT gradient with Valsalva, Treatment Effect: −47 mmHg
[1]; Week 24
  CMR LV end-diastolic and end-systolic volumes: no significant change
  CMR LV mass index, Δ least squares mean relative to placebo: −15 g/m^2
  CMR left atrial volume index, Δ least squares mean relative to placebo: −13 mL/m^2
  CMR maximal LV wall thickness, Δ least squares mean relative to placebo: −2.1 mm
  CMR native Tl relaxation time, Δ least squares mean relative to placebo: -37 ms
  LV extracellular volume fraction [ECV]: 0.7%
  LV replacement fibrosis, late gadolinium enhancement [LGE] mass: -0.7 g
[1]; Week 24, N = 21
  LGE (% of LV mass) (CMR): 1.4 % of LV mass
  LGE Mass (CMR): 1.5 g
  Mitral Regurgitation Fraction (CMR): 13%
  Mitral Regurgitation Volume (CMR): 12 mL
  NT-proBNP, median: 79 pg/mL
  NYHA Class I, patients: 57%
  NYHA Class II, patients: 29%
  NYHA Class III, patients: 14%
[1]; Week 24, N = 21, mean ± SD
  Absolute myocyte mass index (CMR): 75 ± 22 g/m^2
  Echo LVOT Gradient at Rest: 21 ± 18 mm Hg
  Echo LVOT Gradient with Valsalva: 35 ± 26 mm Hg
  LA Volume Index (CMR): 52 ± 14 mL/m^2
  LV Ejection Fraction (CMR): 73.8 ± 5.9%
  LV End Diastolic Volume Index (CMR): 60 ± 11 mL/m^2
  LV End Systolic Volume Index (CMR): 16.0 ± 5.1 mL/m^2
  LV Extracellular Volume Fraction (CMR): 27.4 ± 7.1%
  LV Mass Index (CMR): 103 ± 28 g/m^2
  LV Maximal Wall Thickness (CMR): 17.8 ± 4.5 mm
  LV Native T1 (CMR): 1021 ± 93 ms
  LV extracellular volume mass index (CMR): 29 ± 12 %/g/m^2
  Peak oxygen consumption, pVO2: 21.1 ± 4.7 mL/kg/min
[1]; [11]
  Absolute myocyte mass index (CMR), Treatment Effect (95% CI): −14 (−23, −4) g/m^2
  Echo LVOT Gradient at Rest, Treatment Effect: −46 mm Hg
  Echo LVOT Gradient with Valsalva, Treatment Effect: −50 mm Hg
  LA Volume Index (CMR), Treatment Effect: −13 mL/m^2
  LGE (% of LV mass) (CMR), Treatment Effect (95% CI): −0.4 (−2.1, 1.2) % of LV mass
  LGE Mass (CMR), Treatment Effect (95% CI): −0.7 (−2.9, 1.6) g
  LV Ejection Fraction (CMR), Treatment Effect: −2.6%
  LV End Diastolic Volume Index (CMR), Treatment Effect: −1 mL/m^2
  LV End Systolic Volume Index (CMR), Treatment Effect: 1.4 mL/m^2
  LV Extracellular Volume Fraction (CMR), Treatment Effect (95% CI): 0.7 (−2.2, 3.6) %
  LV Mass Index (CMR), Treatment Effect: −15 g/m^2
  LV Maximal Wall Thickness (CMR), Treatment Effect: −2.1 mm
  LV Native T1 (CMR), Treatment Effect (95% CI): −37 (−69, −5) ms
  LV extracellular volume mass index (CMR), Treatment Effect: −3.9 %/g/m^2
  Mitral Regurgitation Fraction (CMR), Treatment Effect: −6%
  Mitral Regurgitation Volume (CMR), Treatment Effect: -7 mL
  NT-proBNP, Treatment Effect: −85%
  Peak oxygen consumption, pVO2, Treatment Effect: 1.0 mL/kg/min
  Treatment Effect ≥1 NYHA Class Improvement: 36%
[2]; Baseline
  Peak VO2: 1.1 L/h/kg
  VO2 recovery 12.5%: 45 s
  VO2 recovery 25%: 66 s
  VO2 recovery 50%: 115 s
  VO2 recovery delay: 19 s
[2]; [12]
  Peak VO2, Adjusted Δ: 0.102 L/h/kg
  VO2 recovery 12.5%, Adjusted Δ: -8 s
  VO2 recovery 25%, Adjusted Δ: -7 s
  VO2 recovery 50%, Adjusted Δ: -8 s
  VO2 recovery delay, Adjusted Δ: -4 s
[2]; Week 24
  Peak VO2: 1.21 L/h/kg
  VO2 recovery 12.5%: 38 s
  VO2 recovery 25%: 60 s
  VO2 recovery 50%: 107 s
  VO2 recovery delay: 15 s
[2]; aficamten group, W24
  improvement in pVO2: 9%
  improvement in t12.5% (VO2Rec delay): 18%
[2]; aficamten vs placebo
  improving t12.5% by ≥15 seconds, NNT: 4.8
  improving t12.5% by ≥15 seconds, OR: 3.68
[2]; [13]
  Peak VO2, Absolute Δ: 0.108 L/h/kg
  VO2 recovery 12.5%, Absolute Δ: -7 s
  VO2 recovery 25%, Absolute Δ: -6 s
  VO2 recovery 50%, Absolute Δ: -8 s
  VO2 recovery delay, Absolute Δ: -4 s
